In article PMC4393269, “Carvacrol Codrugs: A New Approach in the Antimicrobial Plan” (PLoS ONE, 2015):
In brackets after ≈: the same amount, converted by molar mass.

Assays:
Type in all cases: cell-based
[1] = tested on: human red blood cells (h-RBC); assay: Hemolytic activity; conditions: 4% h-RBC, 1 h at 37°C; for hemolytic activity, maximum at the tested concentrations: 25 to 0.05 mg/mL
Procedure: Experimental protocols to study hemolysis on human red cells were approved by Ethics Committee of the University “G. d’Annunzio” Chieti-Pescara. Human red cells were from two volunteers, who signed the informed consent for this study.
Hemolytic activity of carvacrol codrugs 1–10 was tested against human red blood cells (h-RBC). Fresh human blood, collected with EDTA, was centrifuged at 3000 rpm for 5 min then washed three times with PBS pH 7.3. Red blood cells were diluted to 4% in PBS and incubated with different codrugs concentrations ranging from 25 to 0.05 mg/mL. After 1 h of incubation at 37°C, the suspensions were sedimented by centrifugation and the release of hemoglobin was determined by absorbance measurement at 405 nm and compared with a 0% hemolysis control (PBS) and a 100% hemolysis control (PBS with 1% v/v Triton X-100). The percentage of hemolysis was calculated using the following equation: Hemolysis (%) = [(OD405sample - OD4050% lysis control)/(OD405100% lysis control - OD4050% lysis contro)] X 100

S. aureus ATCC 29213 = assay: Broth microdilution MIC/MBC on planktonic cells; conditions: Staphylococcus aureus, ATCC29213; for MIC: S. aureus ATCC 29213, 24 h at 37°C, read-out: MIC; for MBC: S. aureus ATCC 29213, read-out: MBC
Procedure: (§1) Two Gram-positive (S. aureus ATCC 29213 and S. epidermidis ATCC 35984) and two Gram-negative (E. coli ATCC 8739 and P. aeruginosa ATCC 9027) strains, and one fungal strain (C. albicans ATCC 10231) were used for the detection of antibacterial activity of carvacrol, NAC, Ac-Cys(Allyl)-OH, and carvacrol codrugs 1–10. All tested compounds were dissolved in 20% DMSO to prepare the stock solution (100 mg/mL). The final concentration of DMSO in each well appeared to be not toxic for all studied microorganisms, as confirmed by the solvent control test included in the study.
(§2) The effects of carvacrol codrugs 1–10 and reference compounds on planktonic cells were evaluated by Minimum Inhibitory Concentration (MIC) and Minimum Bactericidal Concentration (MBC) determination using the broth microdilution method according to EUCAST guidelines. Bacterial suspensions, grown in Mueller–Hinton Broth (MHB) at logarithmic phase, were incubated on microtiter plates at a concentration of 5 x 10^5 CFU/mL, with several dilutions (0.07–40 mg/mL) for 24 h at 37°C. The MIC was defined as the lowest concentration of substances giving a complete inhibition of visible growth in comparison with a control well, and the MBC was determined as the lowest concentration at which no bacterial growth occurred on Mueller–Hinton Agar plates.
(§3) Data were obtained from at least three independent experiments performed in duplicate. The susceptibility of the bacterial strains against ciprofloxacin was used as an internal standard during MIC determinations.

E. coli ATCC 8739 = assay: Broth microdilution MIC/MBC on planktonic cells; conditions: Escherichia coli, ATCC8739; for MIC: E. coli ATCC 8739, 24 h at 37°C, read-out: MIC; for MBC: E. coli ATCC 8739, read-out: MBC
Procedure: as §1, §2, §3

P. aeruginosa ATCC 9027 = assay: Broth microdilution MIC/MBC on planktonic cells; conditions: Pseudomonas aeruginosa, ATCC9027; for MIC: P. aeruginosa ATCC 9027, 24 h at 37°C, read-out: MIC; for MBC: P. aeruginosa ATCC 9027, read-out: MBC
Procedure: as §1, §2, §3

[2] = tested on: S. epidermidis ATCC 35984; assay: Broth microdilution MIC/MBC on planktonic cells; conditions: Staphylococcus epidermidis, ATCC35984; for MIC: S. epidermidis ATCC 35984, 24 h at 37°C, read-out: MIC; for MBC: S. epidermidis ATCC 35984, read-out: MBC
Procedure: as §1, §2, §3

C. albicans ATCC 10231 = assay: Broth microdilution MIC/MFC; conditions: Candida albicans, ATCC10231; for MIC: C. albicans ATCC 10231, 24–48 h at 37°C, read-out: MIC; for MFC: C. albicans ATCC 10231, read-out: MFC
Procedure: as §1
The MIC detection of C. albicans ATCC 10231 was performed using the broth microdilution method according to EUCAST guidelines in RPMI 1640 plus 2% glucose with a final inoculum of 1–5 x 10^5 CFU/mL for 24–48 h at 37°C. The Minimum Fungicidal Concentration (MFC) was determined as the lowest concentration of substances at which no fungal growth occurred on Sabouraud agar plates.
as §3

[3] = tested on: Gram positive and Gram negative tested bacteria; assay: Broth microdilution MIC/MBC, range over the bacterial panel; conditions: Gram positive and Gram negative tested bacteria
Procedure: as §1
as §2, with “plates. […]” for “plates.”

Row | MIC (S. aureus ATCC 29213) [µg/mL] | MIC (E. coli ATCC 8739) [µg/mL] | MIC (P. aeruginosa ATCC 9027) [µg/mL] | MIC [2] [µg/mL] | MIC (C. albicans ATCC 10231) [µg/mL] | MIC and MBC values (range over strains) [3] [mg/mL] | SMILES | concentration at which hemolytic activity is over 50% [1] | MBC (S. aureus ATCC 29213) [µg/mL] | MBC (E. coli ATCC 8739) [µg/mL] | MBC (P. aeruginosa ATCC 9027) [µg/mL] | MBC [2] [µg/mL] | MFC (C. albicans ATCC 10231) [µg/mL] | hemolytic activity, maximum at the tested concentrations [1] [%]
1 | 10000 (≈ 32.3 mM) | 10000 (≈ 32.3 mM) | 10000 (≈ 32.3 mM) | 2500 (≈ 8.08 mM) | 5000 (≈ 16.2 mM) | – | CSC[C@H](NC(C)=O)C(=O)Oc1cc(C(C)C)ccc1C [codrug 2, N-Ac-Cys(Methyl)-CAR] | over 20 mg/mL | 10000 (≈ 32.3 mM) | 10000 (≈ 32.3 mM) | 10000 (≈ 32.3 mM) | 10000 (≈ 32.3 mM) | 5000 (≈ 16.2 mM) | –
2 | 10000 (≈ 35.8 mM) | 10000 (≈ 35.8 mM) | 10000 (≈ 35.8 mM) | 10000 (≈ 35.8 mM) | 2500 (≈ 8.95 mM) | – | Cc1ccc(C(C)C)cc1OC(=O)[C@@H]1CSC(=O)N1 [codrug 10, OTC-CAR] | – | 10000 (≈ 35.8 mM) | 10000 (≈ 35.8 mM) | 10000 (≈ 35.8 mM) | 10000 (≈ 35.8 mM) | 2500 (≈ 8.95 mM) | ≤ 12
3 | 10000 (≈ 30.9 mM) | 10000 (≈ 30.9 mM) | 5000 (≈ 15.5 mM) | 10000 (≈ 30.9 mM) | 5000 (≈ 15.5 mM) | – | CSCC[C@H](NC(C)=O)C(=O)Oc1cc(C(C)C)ccc1C [codrug 5, N-Ac-Met-CAR] | over 20 mg/mL | 10000 (≈ 30.9 mM) | 10000 (≈ 30.9 mM) | 10000 (≈ 30.9 mM) | 10000 (≈ 30.9 mM) | 5000 (≈ 15.5 mM) | –

Further lines, the compound ahead of its results:

Row | SMILES | MIC (S. aureus ATCC 29213) [µg/mL] | MIC (E. coli ATCC 8739) [µg/mL] | MIC (P. aeruginosa ATCC 9027) [µg/mL] | MIC [2] [µg/mL] | MIC (C. albicans ATCC 10231) [µg/mL] | MIC and MBC values (range over strains) [3] [mg/mL] | concentration at which hemolytic activity is over 50% [1] | MBC (S. aureus ATCC 29213) [µg/mL] | MBC (E. coli ATCC 8739) [µg/mL] | MBC (P. aeruginosa ATCC 9027) [µg/mL] | MBC [2] [µg/mL] | MFC (C. albicans ATCC 10231) [µg/mL] | hemolytic activity, maximum at the tested concentrations [1] [%]
4 | CC(=O)N[C@@H](CS)C(=O)O [NAC, N-Acetyl-cysteine, reference compound] | 5000 (≈ 30.6 mM) | 5000 (≈ 30.6 mM) | 5000 (≈ 30.6 mM) | 5000 (≈ 30.6 mM) | 20000 (≈ 123 mM) | 5 to 20 | – | 20000 (≈ 123 mM) | 5000 (≈ 30.6 mM) | 5000 (≈ 30.6 mM) | 5000 (≈ 30.6 mM) | 80000 (≈ 490 mM) | –
5 | CC(=O)N[C@@H](CS)C(=O)Oc1cc(C(C)C)ccc1C [codrug 1, NAC-CAR] | 10000 (≈ 33.9 mM) | 10000 (≈ 33.9 mM) | 10000 (≈ 33.9 mM) | 5000 (≈ 16.9 mM) | 300 (≈ 1.02 mM) | – | – | 10000 (≈ 33.9 mM) | 10000 (≈ 33.9 mM) | 10000 (≈ 33.9 mM) | 20000 (≈ 67.7 mM) | 300 (≈ 1.02 mM) | ≤ 40
6 | C[Se]CC[C@H](NC(C)=O)C(=O)Oc1cc(C(C)C)ccc1C [codrug 6, N-Ac-Met(Se)-CAR] | 10000 (≈ 27 mM) | 5000 (≈ 13.5 mM) | 5000 (≈ 13.5 mM) | 5000 (≈ 13.5 mM) | 150 (≈ 0.405 mM) | – | over 20 mg/mL | 10000 (≈ 27 mM) | 10000 (≈ 27 mM) | 10000 (≈ 27 mM) | 10000 (≈ 27 mM) | 600 (≈ 1.62 mM) | –
